From article PMC3898838, “Design, Synthesis, and Biological Evaluation of an Allosteric Inhibitor of HSET that Targets Cancer Cells with Supernumerary Centrosomes” (Chemistry & Biology, 2013)
One block for each molecule: values may come before it.

Assays:
[1] = target: T1, full-length, N-terminal, 6His-tagged human HSET (Homo sapiens, UniProt Q9BW19); experiment: In vitro enzymatic ATPase assay (ADP-Glo), MT-stimulated activity; format: biochemical; details: for reduction of HSET ATPase function: first-pass enzymatic assay, at 100 μM, n = 3
T1 construct: The protocol was optimized for use with full-length, N-terminal, 6His-tagged HSET and KSP; made in house; host or cells: Sf9 insect cells (baculovirus, pFastBac1)
T1 sequence (Q9BW19 1-673): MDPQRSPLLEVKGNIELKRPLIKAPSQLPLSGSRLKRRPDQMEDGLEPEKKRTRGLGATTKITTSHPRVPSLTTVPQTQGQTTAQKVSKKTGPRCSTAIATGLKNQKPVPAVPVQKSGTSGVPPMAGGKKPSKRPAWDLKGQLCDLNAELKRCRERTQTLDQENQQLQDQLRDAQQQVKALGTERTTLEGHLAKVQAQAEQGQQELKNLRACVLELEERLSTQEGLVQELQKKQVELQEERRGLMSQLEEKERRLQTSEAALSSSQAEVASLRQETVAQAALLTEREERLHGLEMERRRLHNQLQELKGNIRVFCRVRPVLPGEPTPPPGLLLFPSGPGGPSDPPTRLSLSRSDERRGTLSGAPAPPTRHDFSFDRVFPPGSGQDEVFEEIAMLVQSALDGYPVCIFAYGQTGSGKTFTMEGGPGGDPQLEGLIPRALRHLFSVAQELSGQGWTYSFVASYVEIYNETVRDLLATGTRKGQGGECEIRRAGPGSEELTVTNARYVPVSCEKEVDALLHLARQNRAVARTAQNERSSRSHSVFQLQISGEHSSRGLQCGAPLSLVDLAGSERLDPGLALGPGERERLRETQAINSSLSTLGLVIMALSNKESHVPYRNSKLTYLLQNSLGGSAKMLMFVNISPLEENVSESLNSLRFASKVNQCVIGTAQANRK
Source text: (§1) The similarity decreases to 56% in the loop 5 binding cleft alone (residues 422–432; Figure 1A). Given the high degree of similarity between the proteins, and the potential for selective binding in the loop 5 cleft, the chemogenomics principle that similar proteins bind similar ligands was applied to HSET and KSP, and an in silico model for HSET binding was developed based on nearly 500 existing inhibitors of KSP in the ChEMBL database (see Experimental Procedures for details; [Klabunde, 2007]). Using the model parameters, we selected 200 compounds (in silico) from 20 million possibilities and further triaged them into 50 ligands that scored highest in the bioactivity model. We acquired and tested these ligands for in vitro activity using an ADP-Glo enzymatic assay (see Experimental Procedures for details; Figure 1B).
(§2) The protocol was optimized for use with full-length, N-terminal, 6His-tagged HSET and KSP, and measured the MT-stimulated activity of the proteins. Inhibition of the […] of HSET/KSP was observed spectrophotometrically by coupling the hydrolysis of ATP to oxidation of NADH via pyruvate kinase/lactate dehydrogenase reactions. The assay was initiated by […] an assay mixture containing the following components (final concentration): 6 nM protein, 0.07 mg/ml MTs (University Biologicals), […], 2 mM ATP, 2.7 mM MgCI, 1 mM phospho(enol)-pyruvate, 0.2 mM NADH, 50 μg/ml lactate dehydrogenase, 100 μg/ml pyruvate kinase, and various concentrations of inhibitor all in 50 mM Na PIPES (pH 6.8) at 37°C. The ADP-Glo detection assay (Promega) was performed as described in the manufacturer’s instructions. All compound additions were performed using a multidrop BioMek Nxp (Beckman Coulter). Plates were read using a Pherastar microplate reader (BMG Labtech).

[2] = target: T2, full-length, N-terminal, 6His-tagged KSP (Homo sapiens, UniProt P52732); experiment: as above; format: biochemical; details: concentrations up to 250 μM, mean ± SD
T2 construct: IC50 values for CW069 and 3 against full-length, N-terminal, 6His-tagged HSET and KSP; made in house
T2 sequence (P52732 1-1056): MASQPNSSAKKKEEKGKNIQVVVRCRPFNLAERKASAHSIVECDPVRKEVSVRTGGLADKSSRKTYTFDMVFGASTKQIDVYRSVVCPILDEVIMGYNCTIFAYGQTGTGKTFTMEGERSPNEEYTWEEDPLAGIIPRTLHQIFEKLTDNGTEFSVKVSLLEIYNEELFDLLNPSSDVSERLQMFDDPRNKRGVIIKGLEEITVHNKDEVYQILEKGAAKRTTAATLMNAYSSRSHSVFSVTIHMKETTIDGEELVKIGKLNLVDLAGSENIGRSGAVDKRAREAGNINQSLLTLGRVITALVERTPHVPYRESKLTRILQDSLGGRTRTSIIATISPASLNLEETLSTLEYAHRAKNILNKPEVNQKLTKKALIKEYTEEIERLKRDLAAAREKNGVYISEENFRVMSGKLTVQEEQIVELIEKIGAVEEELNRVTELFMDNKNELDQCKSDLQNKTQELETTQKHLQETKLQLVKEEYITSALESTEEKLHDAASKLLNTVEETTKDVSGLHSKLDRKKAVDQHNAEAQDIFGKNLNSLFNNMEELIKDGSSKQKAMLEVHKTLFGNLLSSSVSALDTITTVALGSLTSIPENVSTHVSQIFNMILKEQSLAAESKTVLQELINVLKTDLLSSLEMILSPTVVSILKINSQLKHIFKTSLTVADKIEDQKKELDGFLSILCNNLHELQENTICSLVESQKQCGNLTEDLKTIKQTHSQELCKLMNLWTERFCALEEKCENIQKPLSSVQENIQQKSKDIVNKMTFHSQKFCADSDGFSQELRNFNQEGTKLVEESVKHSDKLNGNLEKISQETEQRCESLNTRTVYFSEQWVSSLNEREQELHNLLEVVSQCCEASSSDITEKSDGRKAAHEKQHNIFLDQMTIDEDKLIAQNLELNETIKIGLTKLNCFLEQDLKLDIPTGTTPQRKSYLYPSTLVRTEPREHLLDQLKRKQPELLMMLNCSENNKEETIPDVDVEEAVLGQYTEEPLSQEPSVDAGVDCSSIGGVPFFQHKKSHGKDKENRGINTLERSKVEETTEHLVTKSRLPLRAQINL
Source text: as §1, §2

HeLa cells [3] = experiment: Time-lapse video microscopy, mitotic duration, arrest and exit; format: cell-based, human; details: 200 μM CW069, 100 μM monastrol
Procedure: HSET is known to antagonize the activity of the related kinesin, KSP, during spindle formation ([Mountain et al., 1999]). Therefore, we used time-lapse video microscopy to investigate whether CW069-treated cells transit mitosis with normal kinetics, and whether the characteristic mitotic arrest induced by inhibition of KSP ([Mayer et al., 1999]) could be suppressed by cotreatment with CW069. To this end, HeLa cells were treated with either DMSO control (0.2%), 200 μM CW069, 100 μM monastrol, or CW069+monastrol for 60 min before being imaged every 5 min for a further 360 min. Mitotic duration (MD) was defined as the period of time between when the cells began to round up and the onset of anaphase. No statistical difference was recorded between control cells and cells treated with 200 μM CW069 (MD 55 ± 7 and 53 ± 6 min, respectively, Figures 6A, 6B, and S7). […] This effect was reversed to a large extent by cotreatment of CW069 with monastrol. […] This is consistent with observations previously reported for KSP-depleted cells ([Mountain et al., 1999]). […] Cells were synchronized in G2-M by incubation at 37°C and 5% CO2 for 24 hr with 9 μM of the CDK1 inhibitor RO-3306 (Merck). Cells were released by removal of the RO-3306 and four washings of 10 min each, at 37°C, with prewarmed culture media + 10% FBS. N1E-115 cells were transfected with siRNA (Supplemental Experimental Procedures) and imaged from 6 hr after transfection. Some RO-3306-synchronized cells were released with 200 μM CW069, 100 μM monastrol, or 0.2% DMSO, and imaging started immediately or 1 hr after treatment. Imaging was carried out for 24 hr, or for 4 hr in the case of the CW069/monastrol cotreatment. Imaging was conducted every 5 min in a humidified chamber with 37°C and 5% CO2, using a Nikon Eclipse TE2000-E microscope, and analyzed with NIS-Elements software (Nikon, Tokyo, Japan). The morphology of cells in mitosis and the mitotic fate (bipolar division, multipolar division, or cell death) were analyzed.

HeLa cells [4] = experiment: Immunofluorescence after time-lapse imaging, monopolar/bipolar spindles; format: cell-based, human; details: 200 μM CW069, 100 μM monastrol, 40 mitotic cells
Source text: Immediately after time-lapse imaging, cells were fixed and antibodies against α-tubulin, CDK5RAP2, and DAPI were employed to visualize MTs, centrosomes, and DNA, respectively. […] Control HeLa cells formed mainly bipolar spindles (92%), with two centrosomes positioned at the spindle poles on either side of the metaphase plate (Figure 6C; Table 1). Similar numbers of bipolar spindles were formed in CW069-treated cells (95%; Figure 6C; Table 1). Monastrol-treated cells almost exclusively formed monopolar spindles (97%) with one pole surrounded by DNA ([Luo et al., 2004]; Figure 6C; Table 1). Normal bipolar spindle formation was indeed restored for many cells (45%) when the HSET inhibitor CW069 was administered along with the KSP inhibitor monastrol (Figure 6C; Table 1).
Cells were plated at a seeding density of 1.2 × 10^4 cells per well in Ibidi eight-well chamber slides, incubated for 24 hr, and then treated with compound for 3 hr. Prewarmed 4% paraformaldehyde in PBS was then added to each well to fix the cells before washing with PBS. Permeabilization and blocking was performed by incubating the slides with 1% BSA, 0.3% Triton X-100, 5% goat serum in PBS (PBS/B/0.3%T+5%GS) for 1 hr while shaking them at room temperature (RT). The slides were incubated with primary antibody solutions (mouse monoclonal anti-α-Tubulin [catalog number T9026; Sigma-Aldrich] and rabbit anti-CDK5RAP2 [catalog number A300-554A; Bethyl Laboratories]) at 4°C for 16 hr. The slides were washed four times with PBS/B/0.3%T+5%GS and then incubated with secondary antibody solutions (anti-rabbit IgG Alexa Fluor 488 [catalog number A21206] and anti-mouse IgG Alexa Fluor 647 [catalog number A20990]; Invitrogen) and DAPI (catalog number D3571; Invitrogen) in deionized water (300 nM) in the dark at RT for 1 hr. After four washes with PBS/B/0.3%T+5%GS, the solution was replaced with PBS and the slides were stored at 4°C until imaging was performed. Images were gathered with the use of an ICys Research Imaging Cytometer (CompuCyte) or a tandem confocal microscope (Leica).

[5] = >200 cells that entered mitosis >60 min after treatment

- reduction of HSET ATPase function [1]: > 60%
SMILES: O=C(c1ccc(N2CCCc3ccccc32)s1)n1ccnc1 [compound 1]

- reduction of HSET ATPase function [1]: > 60%
SMILES: O=C(O)c1cc(I)ccc1NC1C(=O)OC(c2ccccc2)C1c1ccccc1 (stereo not shown) [compound 2]

- IC50 [2]: 29 ± 2 µM
- IC50 ([1]; concentrations up to 250 μM, mean ± SD): 30 ± 4 µM
- selectivity for HSET over KSP ([1]; from IC50 values, HSET vs KSP): does not possess selectivity for HSET
SMILES: O=C(O)c1cc(Cl)c(Cl)cc1C(=O)N(Cc1ccccc1)Cc1ccccc1 [compound 3]

SMILES: CCOC(=O)C1=C(C)NC(=S)NC1c1cccc(O)c1 (stereo not shown) [monastrol, reference compound]
- Mitotic Arrest (%) (HeLa cells [3]; [5]): 93%
- Mitotic Exit (%) (HeLa cells [3]; [5]): 7%
- Mitotic duration (MD) (HeLa cells [3]; rounding up to anaphase onset, cells transiting mitosis): 179 ± 68 min
- Bipolar Spindle (%) (HeLa cells [4]): 3%
- Monopolar Spindle (%) (HeLa cells [4]): 97%
